Legend:
JAK1 = molecular target: T1, JAK1 (Homo sapiens, UniProt P23458); test: In vitro activity test of JAK1 kinase (Caliper EZ Reader conversion assay); type: biochemical; details: enzyme activity, 10 concentrations from 1000 nM, 3-fold dilution
T1 construct: purchased Carna 08-114
Method in brief: (§1)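 JAK1 or JAK2 pre-incubated with compound (top 1000 nM, 3-fold, 10 points, duplicate) for 10 min at room temperature, then ATP plus substrate added. Substrate conversion read by mobility-shift on Caliper EZ Reader after stop solution. Inhibition normalized to no-enzyme and DMSO controls; IC50 from variable-slope four-parameter fit.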

JAK2 = molecular target: T2, JAK2 (Homo sapiens, UniProt O60674); test: In vitro activity test of JAK2 kinase (Caliper EZ Reader conversion assay); type: biochemical; details: enzyme activity, 10 concentrations from 1000 nM, 3-fold dilution
T2 construct: purchased Carna 08-045
T2 sequence (O60674 whole entry, species assumed): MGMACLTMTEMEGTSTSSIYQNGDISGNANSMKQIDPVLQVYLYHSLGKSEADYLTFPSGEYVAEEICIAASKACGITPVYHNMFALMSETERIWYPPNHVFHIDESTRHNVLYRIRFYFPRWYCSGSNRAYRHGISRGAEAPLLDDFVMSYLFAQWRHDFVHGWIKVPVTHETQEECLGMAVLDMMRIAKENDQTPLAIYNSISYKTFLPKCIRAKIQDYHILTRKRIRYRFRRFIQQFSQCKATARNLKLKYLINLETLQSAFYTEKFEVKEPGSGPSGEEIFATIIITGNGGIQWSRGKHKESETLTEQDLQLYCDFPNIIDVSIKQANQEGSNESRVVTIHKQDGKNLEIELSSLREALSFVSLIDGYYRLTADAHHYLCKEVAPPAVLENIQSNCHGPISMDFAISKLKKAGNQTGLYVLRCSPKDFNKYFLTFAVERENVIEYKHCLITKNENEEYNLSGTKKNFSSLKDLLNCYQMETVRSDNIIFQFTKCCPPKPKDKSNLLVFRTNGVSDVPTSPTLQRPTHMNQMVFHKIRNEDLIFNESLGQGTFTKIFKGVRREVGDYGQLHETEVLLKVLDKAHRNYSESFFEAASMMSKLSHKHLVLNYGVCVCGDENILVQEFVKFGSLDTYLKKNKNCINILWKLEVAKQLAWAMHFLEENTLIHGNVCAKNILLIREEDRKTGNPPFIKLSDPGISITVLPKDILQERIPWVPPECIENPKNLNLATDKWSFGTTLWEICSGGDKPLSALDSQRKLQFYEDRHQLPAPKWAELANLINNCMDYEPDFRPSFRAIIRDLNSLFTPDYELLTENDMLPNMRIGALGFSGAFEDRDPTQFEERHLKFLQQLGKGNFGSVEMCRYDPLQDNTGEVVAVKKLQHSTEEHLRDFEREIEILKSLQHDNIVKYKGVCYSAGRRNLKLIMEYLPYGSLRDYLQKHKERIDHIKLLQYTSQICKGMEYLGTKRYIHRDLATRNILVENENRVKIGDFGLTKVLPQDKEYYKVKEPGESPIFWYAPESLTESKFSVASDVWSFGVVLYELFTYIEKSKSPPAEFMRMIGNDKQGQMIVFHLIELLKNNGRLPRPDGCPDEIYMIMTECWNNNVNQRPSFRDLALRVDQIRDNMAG
Method in brief: as §1

T1 sequence (P23458 whole entry, species assumed): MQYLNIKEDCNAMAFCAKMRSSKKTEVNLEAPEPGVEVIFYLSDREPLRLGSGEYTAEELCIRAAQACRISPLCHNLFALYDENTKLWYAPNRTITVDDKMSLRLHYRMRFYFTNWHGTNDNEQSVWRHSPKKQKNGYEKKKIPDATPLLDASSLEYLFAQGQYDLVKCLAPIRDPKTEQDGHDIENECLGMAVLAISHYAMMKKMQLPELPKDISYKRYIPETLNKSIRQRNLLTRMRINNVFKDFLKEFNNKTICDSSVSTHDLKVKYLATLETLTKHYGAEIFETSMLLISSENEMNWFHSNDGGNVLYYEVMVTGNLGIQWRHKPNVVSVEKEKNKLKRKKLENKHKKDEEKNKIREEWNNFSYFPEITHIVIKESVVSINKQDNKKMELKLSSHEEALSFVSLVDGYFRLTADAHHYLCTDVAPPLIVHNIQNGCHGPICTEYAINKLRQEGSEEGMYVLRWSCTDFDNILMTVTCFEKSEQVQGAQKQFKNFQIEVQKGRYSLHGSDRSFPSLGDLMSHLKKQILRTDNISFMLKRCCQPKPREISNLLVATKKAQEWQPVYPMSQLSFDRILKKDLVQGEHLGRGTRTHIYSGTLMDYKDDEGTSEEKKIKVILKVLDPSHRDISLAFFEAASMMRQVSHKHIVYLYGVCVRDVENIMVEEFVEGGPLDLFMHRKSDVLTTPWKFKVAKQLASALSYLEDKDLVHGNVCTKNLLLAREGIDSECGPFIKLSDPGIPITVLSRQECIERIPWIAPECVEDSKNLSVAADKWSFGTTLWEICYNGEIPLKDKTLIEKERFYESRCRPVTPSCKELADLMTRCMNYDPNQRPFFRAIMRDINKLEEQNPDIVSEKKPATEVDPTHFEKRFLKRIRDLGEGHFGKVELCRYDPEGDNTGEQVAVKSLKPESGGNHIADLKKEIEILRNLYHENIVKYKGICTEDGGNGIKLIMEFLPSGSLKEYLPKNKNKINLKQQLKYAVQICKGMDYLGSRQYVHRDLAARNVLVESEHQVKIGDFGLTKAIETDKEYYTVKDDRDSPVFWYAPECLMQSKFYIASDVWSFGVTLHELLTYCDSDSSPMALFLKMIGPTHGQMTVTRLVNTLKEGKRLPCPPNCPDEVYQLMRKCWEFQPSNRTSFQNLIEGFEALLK

Compound	IC50 (JAK1) [nM]	IC50 (JAK2) [nM]
CCS(=O)(=O)N1CC(CC#N)(n2cc(-n3c(-c4cccs4)nc4cnc5[nH]ccc5c43)cn2)C1 [LXS63, 2-(1-(Ethylsulfonyl)-3-(4-(2-(thiophen-2-yl)imidazo[4,5-d]pyrrolo[2,3-b]pyridin-1(6H)-yl)-1H-pyrazol-1-yl)azetidin-3-yl)acetonitrile]	100 to 1000	< 10
N#CCCn1cc(-n2c(C(F)(F)F)nc3cnc4[nH]ccc4c32)cn1 [LXS64, 3-(4-(2-(Trifluoromethyl)imidazo[4,5-d]pyrrolo[2,3-b]pyridin-1(6H)-yl)-1H-pyrazol-1-yl)propanenitrile]	100 to 1000	< 10
C[C@@H](O)c1nc2cnc3[nH]ccc3c2n1[C@H]1CCN(CCCC#N)C1 [LXS65, 4-((S)-3-(2-((R)-1-Hydroxyethyl)imidazo[4,5-d]pyrrolo[2,3-b]pyridin-1(6H)-yl)pyrrolidin-1-yl)butanenitrile]	< 10	100 to 1000
N#CCC(C1CCCC1)n1cc(-n2c(C(F)(F)F)nc3cnc4[nH]ccc4c32)cn1 (stereo not drawn) [LXS66, 3-Cyclopentyl-3-(4-(2-(trifluoromethyl)imidazo[4,5-d]pyrrolo[2,3-b]pyridin-1(6H)-yl)-1H-pyrazol-1-yl)propanenitrile]	10 to 100	10 to 100
CS(=O)(=O)c1ccc(C2Nc3cnc4[nH]ccc4c3N2c2cnn(CCC#N)c2)cc1 (stereo not drawn) [LXS67, 3-(4-(2-(4-(Methylsulfonyl)phenyl)-2,3-dihydroimidazo[4,5-d]pyrrolo[2,3-b]pyridin-1(6H)-yl)-1H-pyrazol-1-yl)propanenitrile]	10 to 100	10 to 100
C[C@@H](O)c1nc2cnc3[nH]ccc3c2n1[C@H]1CCN(CCCCC#N)C1 [LXS68, 5-((S)-3-(2-((R)-1-Hydroxyethyl)imidazo[4,5-d]pyrrolo[2,3-b]pyridin-1(6H)-yl)pyrrolidin-1-yl)pentanonitrile]	< 10	100 to 1000
C[C@@H](O)c1nc2cnc3[nH]ccc3c2n1[C@@H]1CN(CCCC#N)CC12CC2 [LXS69, 4-((S)-7-(2-((R)-1-Hydroxyethyl)imidazo[4,5-d]pyrrolo[2,3-b]pyridin-1(6H)-yl)-5-azaspiro[2,4]hept-5-yl)butanenitrile]	10 to 100	10 to 100
C[C@@H](O)c1nc2cnc3[nH]ccc3c2n1[C@@H]1CN(CCCC(F)(F)F)CC12CC2 [LXS70, (R)-1-(1-((S)-5-(4,4,4-Trifluorobutyl)-5-azaspiro[2,4]hept-7-yl)-1,6-dihydroimidazo[4,5-d]pyrrolo[2,3-b]pyridin-2-yl)ethanol]	10 to 100	10 to 100
C[C@@H](O)c1nc2cnc3[nH]ccc3c2n1[C@H]1CCN(CCCC(F)(F)F)C1 [LXS71, (R)-1-(1-((S)-1-(4,4,4-Trifluorobutyl)pyrrolidin-3-yl)-1,6-dihydroimidazo[4,5-d]pyrrolo[2,3-b]pyridin-2-yl)ethanol]	< 10	100 to 1000
C[C@@H](O)c1nc2cnc3[nH]ccc3c2n1[C@@H]1CN(CCCCC#N)CC12CC2 [LXS72, 5-((S)-7-(2-((R)-1-Hydroxyethyl)imidazo[4,5-d]pyrrolo[2,3-b]pyridin-1(6H)-yl)-5-azaspiro[2,4]hept-5-yl)pentanonitrile]	10 to 100	10 to 100
C[C@@H](O)c1nc2cnc3[nH]ccc3c2n1[C@H]1CCN(CCCCCF)C1 [LXS73, (R)-1-(1-((S)-1-(5-fluoropentyl)pyrrolidin-3-yl)-1,6-dihydroimidazo[4,5-d]pyrrolo[2,3-b]pyridin-2-yl) ethanol]	< 10	100 to 1000
C[C@@H](O)c1nc2cnc3[nH]ccc3c2n1[C@H]1CCN(CC(=O)NCC(F)(F)F)C1 [LXS74, 2-((S)-3-(2-((R)-1-Hydroxyethyl)imidazo[4,5-d]pyrrolo[2,3-b]pyridin-1(6H)-yl)pyrrolidin-1-yl)-N-(2,2,2-trifluoroethyl)acetamide]	< 10	100 to 1000

From patent publication US20240383898A1, “PYRIDO RING COMPOUND, PREPARATION METHOD THEREFOR, INTERMEDIATE, COMPOSITION, AND APPLICATION” (YIYOU BIOTECH (SHANGHAI) CO., LTD, priority 2021, published 2024)
